Measurements: US20120283190A1, “ENDOTHELIN INHIBITORS FOR THE TREATMENT OF RAPIDLY PROGRESSIVE GLOMERULONEPHRITIS” (Institut National De La Santé Et De La Recherche Medicale …, priority 2009, published 2012)
Where a SMILES comes first, the peptide text is derived from it. [ ]: non-standard residue; d: D form.

Key:
[1] = tested on: accelerated anti-GBM RPGN model; assay: accelerated anti-GBM RPGN model, bosentan mixed with food; format: in vivo, C57B1/6J mice; settings: bosentan 50 mg/kg/d oral in food
Description: Male and female C57B1/6 mice weighing 20-25 g, 10 weeks old, purchased from Charles River France, were housed in a room with a 12 h light-dark cycle with water and food ad libido. […] The animals were sacrificed by injection of pentobarbital (100 mg/kg i.p.)
The accelerated anti-GBM RPGN model was used, as previously described in Topham P S et al, 1999 and Lloyd C M et al, 1997. Briefly, C57B1/6J male mice were given subcutaneous injections of 200 μg normal sheep IgG (100 μl into each flank of normal sheep IgG (Sigma) diluted to 1 mg/ml in a solution of 50% Freund's complete adjuvent and 50% saline). Six days later (day 1), GN was induced by intravenous injection of 50 μL sheep anti-glomerular basement membrane (GBM) serum diluted to 70 mg/ml in saline. Serum injections were repeated twice (on days 2 and 3), with the serum volume increased to 250 μL. From days 0 to 14, mice were given bosentan, an orally active endothelin antagonist (designated chemically as 4-tert-butyl-N-[6-(2-hydroxy-ethoxy)-5-(2-methoxy-phenoxy)-[2,2′]-bipyrimidin-4-yl]-benzenesulfonamide monohydrate). We manually grinded 62.5 mg film-coated tablets of […] ® (bosentan) for oral administration and mixed them with powdered food supplied to the animals at an active dose of 50 mg/kg/d for 14 days as previously described^3. […] The treated group (n=7) was compared to vehicle-treated animals (n=6). […]
Normalized albumin urinary excretion was evaluated from urine samples collected for 18 h in metabolic cages (Techniplast). Urinary creatinine and albumin were quantified spectrophotometrically using colorimetric methods (Olympus).
For light microscopy, half mouse kidneys were fixed and embedded in paraffin, and 3 μm-thick sections were cut. Histopathological changes were evaluated using Masson's trichrome coloration by an examiner who was blind to the experimental conditions. The proportion of crescentic glomeruli was determined by examination of at least 50 glomeruli per section.

[2] = tested on: murine podocyte cell line; assay: migration assay in cultured podocytes (Ibidi Culture-Insert, gap coverage); format: cell-based, mouse; settings: coverage of 500 μm gap after 20 hours of culture; vs vehicle (RPMI with DMSO)
Description: Selected experiments (migration studies) were performed in a murine podocyte cell line (Schiwek D et al, 2004) derived from isolated from kidneys of Immorto-Mouse® mice (Charles River, St. Louis, Mo., USA), carrying a temperature-sensitive mutant of the immortalizing SV40 large T antigen under control of the interferon-gamma (INF-γ)-inducible H-2 Kb promoter. Migration assays were performed in μ-Dish 35 mm high with Culture-Insert (Ibidi). Ibidi's wounding inserts were used for cell migration or cell invasion studies. […] The inserts can be inserted into any bio-compatible surface and used to culture one or multiple cell lines. These inserts have two wells that create 2 distinct cell patches with a defined gap of 500 μm. The coverage of this gap after 20 hours of culture was assessed in the presence of the selective ETA antagonist BQ123 or the ETB antagonist BQ 788 (Calbiochem) or vehicle (RPMI with DMSO).

[3] = tested on: experimental model of RPGN; assay: anti-GBM RPGN model, continuous infusion of selective ETA or ETB antagonist by subcutaneous osmotic minipumps; format: in vivo, C57B1/6J mice; settings: 100 nmol·kg−1·day−1 by minipump; for plasma urea concentration (index of renal failure): vehicle 34.3±6.1 mmol/L

| SMILES | Albuminuria normalized to creatininuria, fold lower than in vehicle-treated counterparts ([1]; day 5 after infusion of the anti-GBM serum, p=0.0053) [fold] | crescentic glomeruli, fold less than in vehicle-treated counterparts ([1]; day 14 after infusion of the anti-GBM serum, p=0.0057) [fold] | fibrinogen deposition in glomeruli with disappearance of podocin positive podocytes ([1]; mice with anti-GBM serum-induced RPGN) | migration of cultured podocytes [2] | Albuminuria normalized to creatininuria ([3]; day 7 after infusion of the anti-GBM serum, versus PBS-treated animals) | plasma urea concentration (index of renal failure) [3] [mmol/L] |
| --- | --- | --- | --- | --- | --- | --- |
| COc1ccccc1Oc1c(NS(=O)(=O)c2ccc(C(C)(C)C)cc2)nc(-c2ncccn2)nc1OCCO [bosentan, 4-tert-butyl-N-[6-(2-hydroxy-ethoxy)-5-(2-methoxy-phenoxy)-[2,2′]-bipyrimidin-4-yl]-benzenesulfonamide monohydrate] | 5.8 | 14 | blunted |  |  |  |
| CCCC[C@@H](NC(=O)[C@@H](Cc1cn(C(=O)OC)c2ccccc12)NC(=O)[C@H](CC(C)(C)C)NC(=O)N1[C@H](C)CCC[C@@H]1C)C(=O)O [BQ788] |  |  |  | prominent action | prominent action | 12.3 ± 2.1 |
| CC(C)C[C@@H]1NC(=O)[C@@H](C(C)C)NC(=O)[C@@H]2CCCN2C(=O)[C@@H](CC(=O)O)NC(=O)[C@@H](Cc2c[nH]c3ccccc23)NC1=O [BQ123] (cyclo(L[dW][dD]P[dV])) |  |  |  |  |  | 17.5 ± 2.5 |
